The values that follow come from patent US20260083865A1, “PROSTATE SPECIFIC MEMBRANE ANTIGEN (PSMA) LIGANDS AND USE THEREOF” (priority 2022, published 2026).

Numbered stars: 1 amine (or outer) side, 2 acyl side, 3 side chain; on linkers, the order of the positions; unused ones are H or OH. Bridge positions count the residues as written; N and C are the ends. Square brackets hold non-standard residues; d marks the D form. Peptide text beside a SMILES is read from it. * marks the point of attachment. X3 = O=C(O)CN1CCN(CC(=O)O)CCN(CC(=O)NCCCOCCOCCOCCCN*)CCN(CC(=O)O)CC1; DOTA = O=C(O)CN1CCN(CC(=O)O)CCN(CC(=O)*)CCN(CC(=O)O)CC1; Ala(quinolin-3-yl) = N[C@@H](Cc1cnc2ccccc2c1)C(=O)O; Phe(4-Cl) = N[C@@H](Cc1ccc(Cl)cc1)C(=O)O; Arg(Me) = CNC(=N)NCCC[C@H](N)C(=O)O; NMeR = CN[C@@H](CCCNC(=N)N)C(=O)O; X1 = O=C(CC1CCN([*:1])CC1)[*:2]; Cit = NC(=O)NCCC[C@H](N)C(=O)O; Lys(Me) = CNCCCC[C@H](N)C(=O)O; Suc = O=C(CCC(=O)[*:2])[*:1]; Tle = CC(C)(C)[C@H](N)C(=O)O; Nle = CCCC[C@H](N)C(=O)O; Aib = CC(C)(N)C(=O)O; CH2 = C([*:1])[*:2]

The target in assay [1] is T1, PSMA-expressing C4-2 cells (Homo sapiens, UniProt Q04609).
T1 construct: PSMA-expressing C4-2 cells (ATCC, Cat. No. CRL-3314) were cultured in RPMI-1640; host or cells: C4-2 cells
T1 sequence (Q04609 whole entry): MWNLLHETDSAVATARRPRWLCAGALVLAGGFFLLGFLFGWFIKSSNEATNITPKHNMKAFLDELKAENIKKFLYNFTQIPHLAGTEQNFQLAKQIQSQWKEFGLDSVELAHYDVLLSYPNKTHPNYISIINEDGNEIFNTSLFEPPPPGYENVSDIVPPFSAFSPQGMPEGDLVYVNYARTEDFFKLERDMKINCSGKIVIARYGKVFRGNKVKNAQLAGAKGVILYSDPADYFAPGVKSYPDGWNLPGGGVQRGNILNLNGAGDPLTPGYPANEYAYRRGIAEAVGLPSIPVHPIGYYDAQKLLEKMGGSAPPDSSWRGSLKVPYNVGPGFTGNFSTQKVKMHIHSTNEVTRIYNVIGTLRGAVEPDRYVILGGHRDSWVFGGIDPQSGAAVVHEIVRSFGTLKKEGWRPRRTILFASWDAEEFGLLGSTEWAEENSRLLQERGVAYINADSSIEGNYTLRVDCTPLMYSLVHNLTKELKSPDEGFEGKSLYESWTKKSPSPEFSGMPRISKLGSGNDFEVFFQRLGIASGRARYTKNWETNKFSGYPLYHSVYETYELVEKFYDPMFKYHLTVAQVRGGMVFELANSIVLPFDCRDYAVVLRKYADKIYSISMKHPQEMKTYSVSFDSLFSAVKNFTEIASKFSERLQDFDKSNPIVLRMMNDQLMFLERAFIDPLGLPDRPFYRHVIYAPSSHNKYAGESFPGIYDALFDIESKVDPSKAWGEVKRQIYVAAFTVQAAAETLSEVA
As to the kind of experiment: FACS binding assay (competition with 50 nM PSM-0183). Conditions: FACS binding, PSMA-expressing C4-2 cells; pIC50 category; read-out: pIC50 [C4-2] CAT (converted). In short, it runs like this: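 Competition format: fluorescent tracer PSM-0183 (50 nM) displaced from PSMA on C4-2 cells by a test compound titration over 1 h at 4 °C. Bound tracer was quantified as flow-cytometric AF488 median fluorescence after washing. Four-parameter logistic fits of MFI data gave IC50 and pIC50.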
Background: In flow cytometry, cells or beads pass a laser one at a time.

Assay [2] addresses T2, Fc-fusion protein of human PSMA (hPSMA-Fc) (Homo sapiens, UniProt Q04609).
T2 construct: purchased Acro Biosystems PSA-H5264
As to the kind of experiment: Surface plasmon resonance assay (Biacore T200, single cycle kinetic). Conditions: PSMA SPR assay, hPSMA-Fc, 25° C.; pKD category; read-out: pKD CAT (converted). Format: binding. In short, it runs like this:
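KD, expressed as pKD, came from 1:1 Langmuir fits of reference- and buffer-blank-subtracted SPR data. The runs were single-cycle kinetics at 25° C in HBST/0.1% DMSO over human PSMA-Fc, captured to ~1000 RU on a peptide-coated CM5 surface and regenerated with 10 mM glycine pH 1.5.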

T2 sequence (Q04609 44-750 limits assumed): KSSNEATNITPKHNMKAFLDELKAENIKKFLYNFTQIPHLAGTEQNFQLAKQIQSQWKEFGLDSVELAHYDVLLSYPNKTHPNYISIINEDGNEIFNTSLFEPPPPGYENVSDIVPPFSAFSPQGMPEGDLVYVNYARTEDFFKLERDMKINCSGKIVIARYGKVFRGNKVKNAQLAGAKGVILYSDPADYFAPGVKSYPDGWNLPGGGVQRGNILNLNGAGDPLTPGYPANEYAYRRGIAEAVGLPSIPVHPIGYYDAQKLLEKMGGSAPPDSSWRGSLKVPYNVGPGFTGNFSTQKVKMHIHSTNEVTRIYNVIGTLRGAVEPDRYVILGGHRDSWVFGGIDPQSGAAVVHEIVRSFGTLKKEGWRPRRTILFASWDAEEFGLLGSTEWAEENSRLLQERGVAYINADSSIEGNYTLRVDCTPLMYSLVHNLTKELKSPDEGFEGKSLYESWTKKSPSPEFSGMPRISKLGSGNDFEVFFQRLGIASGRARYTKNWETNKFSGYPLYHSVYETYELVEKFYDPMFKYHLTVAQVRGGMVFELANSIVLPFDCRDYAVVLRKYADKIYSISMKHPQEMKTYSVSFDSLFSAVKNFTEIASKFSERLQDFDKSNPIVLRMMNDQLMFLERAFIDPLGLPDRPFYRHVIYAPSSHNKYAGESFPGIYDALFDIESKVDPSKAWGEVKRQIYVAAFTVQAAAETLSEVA

`C[C@@H](O)[C@H](NC(=O)CC1CCN(C(=O)CN2CCN(CC(=O)O)CCN(CC(=O)O)CCN(CC(=O)O)CC2)CC1)C(=O)NC(C)(C)C(=O)N[C@@H](Cc1ccc(Cl)cc1)C(=O)N[C@H]1CSCSC[C@@H](C(=O)N[C@H](C(N)=O)C(C)(C)C)NC(=O)[C@H](CC(N)=O)NC(=O)C(C)(C)NC(=O)[C@H](CCCNC(=N)N)NC(=O)[C@H](CCCCN)NC1=O` [PSM-0332, DOTA-Cmp-Thr-Aib-Pcf-[Smc-Lys-Arg-Aib-Asn-Cys]-Tle-NH2] ({DOTA}-[X1]T[Aib][Phe(4-Cl)]CKR[Aib]NC[Tle]-NH2; linker 5-10 via CH2): the IC50 in assay [1] is below 200 nM. Further, the Kd in assay [2] is below 12.6 nM.

In the case of `C[C@@H](O)[C@H](NC(=O)[C@@H](NC(=O)[C@@H]1CSSC[C@H](NC(=O)[C@H](Cc2cnc3ccccc3c2)NC(=O)C(C)(C)NC(=O)[C@@H](NC(=O)CC2CCN(C(=O)CN3CCN(CC(=O)O)CCN(CC(=O)O)CCN(CC(=O)O)CC3)CC2)[C@@H](C)O)C(=O)N[C@@H](CCCCN)C(=O)N[C@@H](CCCNC(N)=O)C(=O)NC(C)(C)C(=O)N[C@@H](CC(N)=O)C(=O)N1)C(C)(C)C)C(N)=O` [PSM-0333, DOTA-Cmp-Thr-Aib-2Qi-[Cys-Lys-Cit-Aib-Asn-Cys]-Tle-Thr-NH2] ({DOTA}-[X1]T[Aib][Ala(quinolin-3-yl)]CK[Cit][Aib]NC[Tle]T-NH2; disulfide 5-10), the IC50 in assay [1] was above 3160 nM. In assay [2], the Kd is above 501 nM.

Take `CC(=O)N[C@H](C(=O)NC(C)(C)C(=O)N[C@@H](Cc1ccccc1)C(=O)N[C@H]1CSSC[C@@H](C(=O)N[C@H](C(=O)N[C@H](C(=O)N[C@@H](CC(=O)O)C(N)=O)[C@@H](C)O)C(C)(C)C)NC(=O)[C@H](CC(N)=O)NC(=O)C(C)(C)NC(=O)[C@H](CCC(N)=O)NC(=O)[C@H](CCCCN)NC1=O)[C@@H](C)O` [PSM-0334, Ac-Thr-Aib-Phe-[Cys-Lys-Gln-Aib-Asn-Cys]-Tle-Thr-Asp-NH2] (Ac-T[Aib]FCKQ[Aib]NC[Tle]TD-NH2; disulfide 4-9): the IC50 in assay [1] was below 200 nM. The Kd in assay [2] was 12.6 to 126 nM.

Turning to `CCCC[C@H](NC(=O)[C@@H]1CSSC[C@H](NC(=O)[C@H](Cc2ccccc2)NC(=O)[C@H](C)NC(=O)[C@@H](NC(C)=O)[C@@H](C)O)C(=O)N[C@@H](CCCCN)C(=O)N[C@@H](CCCNC(=N)N)C(=O)N[C@@H](C)C(=O)N[C@@H](C)C(=O)N1)C(=O)N[C@H](C(=O)N[C@@H](CC(=O)O)C(N)=O)[C@@H](C)O` [PSM-0335, Ac-Thr-Ala-Phe-[Cys-Lys-Arg-Ala-Ala-Cys]-Nle-Thr-Asp-NH2] (Ac-TAFCKRAAC[Nle]TD-NH2; disulfide 4-9), the IC50 in assay [1] is 1260 to 3160 nM. The Kd in assay [2] is 12.6 to 126 nM.

With `CC(=O)N[C@H](C(=O)NC(C)(C)C(=O)N[C@@H](Cc1ccc(Cl)cc1)C(=O)N[C@H]1CSSC[C@@H](C(=O)N[C@H](C(=O)N[C@H](C(N)=O)[C@@H](C)O)C(C)(C)C)NC(=O)[C@H](CC(N)=O)NC(=O)C(C)(C)NC(=O)[C@H](CCCNC(=N)N)NC(=O)[C@H](CCCCN)NC1=O)[C@@H](C)O` [PSM-0336, Ac-Thr-Aib-Pcf-[Cys-Lys-Arg-Aib-Asn-Cys]-Tle-Thr-NH2] (Ac-T[Aib][Phe(4-Cl)]CKR[Aib]NC[Tle]T-NH2; disulfide 4-9), the IC50 in assay [1] is below 200 nM. Moreover, in assay [2], the Kd was below 12.6 nM.

On to `CNCCCC[C@@H]1NC(=O)[C@@H](NC(=O)[C@H](Cc2cnc3ccccc3c2)NC(=O)C(C)(C)NC(=O)[C@@H](NC(=O)CC2CCN(C(=O)CN3CCN(CC(=O)O)CCN(CC(=O)O)CCN(CC(=O)O)CC3)CC2)[C@@H](C)O)CSSC[C@@H](C(=O)N[C@H](C(=O)N[C@H](C(N)=O)[C@@H](C)O)C(C)(C)C)NC(=O)[C@H](CC(N)=O)NC(=O)C(C)(C)NC(=O)[C@H](CCCNC(=N)NC)NC1=O` [PSM-0337, DOTA-Cmp-Thr-Aib-2Qi-[Cys-Lys(Me)-Arg(Me)-Aib-Asn-Cys]-Tle-Thr-NH2] ({DOTA}-[X1]T[Aib][Ala(quinolin-3-yl)]C[Lys(Me)][Arg(Me)][Aib]NC[Tle]T-NH2; disulfide 5-10), for which, in assay [1], the IC50 is 1260 to 3160 nM. In assay [2], the Kd is above 501 nM.

With `CCCC[C@@H]1NC(=O)[C@H](CCCCN)NC(=O)[C@@H](NC(=O)[C@H](Cc2ccc(Cl)cc2)NC(=O)C(C)(C)NC(=O)[C@@H](NC(C)=O)[C@@H](C)O)CSSC[C@@H](C(=O)N[C@H](C(=O)N[C@H](C(N)=O)[C@@H](C)O)C(C)(C)C)NC(=O)[C@H](CC(N)=O)NC(=O)C(C)(C)NC1=O` [PSM-0338, Ac-Thr-Aib-Pcf-[Cys-Lys-Nle-Aib-Asn-Cys]-Tle-Thr-NH2] (Ac-T[Aib][Phe(4-Cl)]CK[Nle][Aib]NC[Tle]T-NH2; disulfide 4-9), in assay [1], the IC50 was below 200 nM. Further, the Kd in assay [2] is below 12.6 nM.

For `C[C@@H](O)[C@H](NC(=O)[C@@H](NC(=O)[C@@H]1CSSC[C@H](NC(=O)[C@H](Cc2ccc(Cl)cc2)NC(=O)C(C)(C)NC(=O)[C@@H](NC(=O)CC2CCN(C(=O)CN3CCN(CC(=O)O)CCN(CC(=O)O)CCN(CC(=O)O)CC3)CC2)[C@@H](C)O)C(=O)N[C@@H](CCCCN)C(=O)N(C)[C@@H](CCCNC(=N)N)C(=O)NC(C)(C)C(=O)N[C@@H](CC(N)=O)C(=O)N1)C(C)(C)C)C(N)=O` [PSM-0340, DOTA-Cmp-Thr-Aib-Pcf-[Cys-Lys-Nmr-Aib-Asn-Cys]-Tle-Thr-NH2] ({DOTA}-[X1]T[Aib][Phe(4-Cl)]CK[NMeR][Aib]NC[Tle]T-NH2; disulfide 5-10), the IC50 in assay [1] was 200 to 1260 nM. In assay [2], the Kd is below 12.6 nM.

Consider `CC(=O)NCCCC[C@@H]1NC(=O)[C@H](CCCCN)NC(=O)[C@@H](NC(=O)[C@H](Cc2ccc(Cl)cc2)NC(=O)C(C)(C)NC(=O)[C@@H](NC(=O)CC2CCN(C(=O)CN3CCN(CC(=O)O)CCN(CC(=O)O)CCN(CC(=O)O)CC3)CC2)[C@@H](C)O)CSSC[C@@H](C(=O)N[C@H](C(=O)N[C@H](C(N)=O)[C@@H](C)O)C(C)(C)C)NC(=O)[C@H](CC(N)=O)NC(=O)C(C)(C)NC1=O` [PSM-0341, DOTA-Cmp-Thr-Aib-Pcf-[Cys-Lys-Lys(Ac)-Aib-Asn-Cys]-Tle-Thr-NH2] ({DOTA}-[X1]T[Aib][Phe(4-Cl)]CKK(Ac)[Aib]NC[Tle]T-NH2; disulfide 5-10), for which, in assay [1], the IC50 is 200 to 1260 nM. For the same molecule, the Kd in assay [2] was below 12.6 nM.

Turning to `C[C@@H]1NC(=O)[C@H](CCCNC(=N)N)NC(=O)[C@H](CCCCN)NC(=O)[C@@H](NC(=O)[C@H](Cc2ccccc2)NC(=O)[C@H](C)NC(=O)[C@@H](NC(=O)CCC(=O)NCCCOCCOCCOCCCNC(=O)CN2CCN(CC(=O)O)CCN(CC(=O)O)CCN(CC(=O)O)CC2)[C@@H](C)O)CSSC[C@@H](C(=O)N[C@H](C(=O)N[C@H](C(=O)N[C@@H](CC(=O)O)C(N)=O)[C@@H](C)O)C(C)(C)C)NC(=O)[C@H](CC(N)=O)NC1=O` [PSM-0342, DOTA-Ttds-Thr-Ala-Phe-[Cys-Lys-Arg-Ala-Asn-Cys]-Tle-Thr-Asp-NH2] ({X3-Suc}-TAFCKRANC[Tle]TD-NH2; disulfide 4-9), the IC50 in assay [1] is below 200 nM. Besides, in assay [2], the Kd was 12.6 to 126 nM.

As for `C[C@@H](O)[C@H](NC(=O)[C@@H](NC(=O)[C@@H]1CSSC[C@H](NC(=O)[C@H](Cc2ccc(Cl)cc2)NC(=O)[C@@H](CCC(=O)O)NC(=O)[C@@H](NC(=O)CC2CCN(C(=O)CN3CCN(CC(=O)O)CCN(CC(=O)O)CCN(CC(=O)O)CC3)CC2)[C@@H](C)O)C(=O)N[C@@H](CCCCN)C(=O)N[C@@H](CCCNC(=N)N)C(=O)NC(C)(C)C(=O)N[C@@H](CC(N)=O)C(=O)N1)C(C)(C)C)C(N)=O` [PSM-0343, DOTA-Cmp-Thr-glu-Pcf-[Cys-Lys-Arg-Aib-Asn-Cys]-Tle-Thr-NH2] ({DOTA}-[X1]T[dE][Phe(4-Cl)]CKR[Aib]NC[Tle]T-NH2; disulfide 5-10), the IC50 in assay [1] is above 3160 nM. In assay [2], the Kd is above 501 nM.
